Data from the NIST ThermoML archive (doi:10.1016/j.jct.2016.08.016).
Numbers after ± are expanded uncertainties.

Settings: Crystal; visual observation

| SMILES | Normal melting temperature [°C] |
| --- | --- |
| CC1=C(NCc2ccccc2)C(=O)c2ccccc2C1=O [2-(benzylamino)-3-methylnaphthalene-1,4-dione] | 91.7 ± 2.6 |
| CC1=C(NCCc2ccccc2)C(=O)c2ccccc2C1=O [3-(phenethylamino)-2-methylnaphthalene-1,4-dione] | 92.6 ± 1.6 |
